Earlier results in patent publication US20260317295A1, “NAV1.8 INHIBITORS, PREPARATION METHOD THEREFOR AND USE THEREOF” (SHANGHAI INSTITUTE OF MATERIA MEDICA, CHINESE ACADEMY OF …, priority 2023, published 2026).

Experiments:
Nav1.8 [1] = settings: L7-1.8TG transgenic mice
Nav1.8 [2] = settings: rat, STZ-induced diabetic neuropathy, intraperitoneal or intraplantar
Nav1.8 [3] = settings: rodents

CNC(=O)c1ccc(-c2cc(Cl)cc(Cl)c2Cl)c(N)n1 [PF-01247324]
MS behaviors (Nav1.8 [1]): alleviate the MS behaviors

COc1cc(NC(=O)c2ccc(-c3ccc(Cl)cc3)o2)cc(OC)c1 [Compound A-803467]
pain behavioral responses (Nav1.8 [2]): dose-dependently alleviate the animals' pain behavioral responses | pain responses (Nav1.8 [3]): effectively alleviate pain responses
